# Assay results as given in patent US9586962B2, “Disubstituted octahydropyrrolo [3,4-C] pyrroles as orexin receptor modulators” (Janssen Pharmaceutica NV, priority 2011, dated 2017).
# Tests used:
# human orexin 2 receptor [1] = molecular target: T1, human orexin 2 receptor (Homo sapiens (Human), UniProt O43614); test: Human orexin 2 receptor radioligand binding ([3H]EMPA competition, HEK293 cells); details: HEK293 cells expressing human orexin-2 receptor, read-out: OR 2 Ki
# human orexin 2 receptor [2] = molecular target: T1, human orexin 2 receptor; test: Human orexin 2 receptor Ca2+ mobilization assay (FLIPR, PFSK cells, orexin B 100 nM); format: cell-based; details: modified Cheng-Prusoff correction, read-out: OR 2 Kb
# T1 sequence (O43614 whole entry): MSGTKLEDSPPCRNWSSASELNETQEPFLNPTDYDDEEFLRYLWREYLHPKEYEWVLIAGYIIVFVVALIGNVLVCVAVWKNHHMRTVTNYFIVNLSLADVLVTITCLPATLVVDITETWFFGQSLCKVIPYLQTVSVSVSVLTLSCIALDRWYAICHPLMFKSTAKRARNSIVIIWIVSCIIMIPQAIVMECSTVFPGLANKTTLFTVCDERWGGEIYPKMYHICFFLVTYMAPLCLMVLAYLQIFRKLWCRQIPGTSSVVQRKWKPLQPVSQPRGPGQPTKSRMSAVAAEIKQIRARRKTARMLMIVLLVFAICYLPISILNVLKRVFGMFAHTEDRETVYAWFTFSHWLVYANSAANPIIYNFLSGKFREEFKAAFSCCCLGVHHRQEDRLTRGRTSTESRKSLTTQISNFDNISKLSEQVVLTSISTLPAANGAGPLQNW
SMILES,Ki (human orexin 2 receptor [1]),Kb (human orexin 2 receptor [2])
"Cc1noc(-c2c(F)cccc2C(=O)N2CC3CN(c4ncc(F)c(C)n4)CC3C2)n1 (stereo not shown) [Example 440, 2-{[3-Fluoro-2-(3-methyl-1,2,4-oxadiazol-5-yl)phenyl]carbonyl}-5-(5-fluoro-4-methylpyrimidin-2-yl)octahydropyrrolo[3,4-c]pyrrole]",64 nM,15 nM
"CCCOc1ccc(C)nc1C(=O)N1CC2CN(c3cc(N(C)C)nc(C)n3)CC2C1 (stereo not shown) [Example 424, N,N,2-Trimethyl-6-{5-[(6-methyl-3-propoxypyridin-2-yl)carbonyl]hexahydropyrrolo[3,4-c]pyrrol-2(1H)-yl}pyrimidin-4-amine]",1160 nM,
"CCOc1ncccc1C(=O)N1CC2CN(c3ncc4cc(F)ccc4n3)CC2C1 (stereo not shown) [Example 448, 2-{5-[(2-Ethoxypyridin-3-yl)carbonyl]hexahydropyrrolo[3,4-c]pyrrol-2(1H)-yl}-6-fluoroquinazoline]",340 nM,
"Cc1ccc(-c2ncc(C)o2)c(C(=O)N2CC3CN(c4cc(N(C)C)nc(C)n4)CC3C2)n1 (stereo not shown) [Example 429, N,N,2-Trimethyl-6-[5-{[6-methyl-3-(5-methyl-1,3-oxazol-2-yl)pyridin-2-yl]carbonyl}hexahydropyrrolo[3,4-c]pyrrol-2(1H)-yl]pyrimidin-4-amine]",764 nM,
"Cc1cc(C)nc(N2CC3CN(C(=O)c4ccc(OC(F)F)cc4-n4nccn4)CC3C2)n1 (stereo not shown) [Example 446, 2-{[4-(Difluoromethoxy)-2-(2H-1,2,3-triazol-2-yl)phenyl]carbonyl}-5-(4,6-dimethylpyrimidin-2-yl)octahydropyrrolo[3,4-c]pyrrole]",72 nM,
"Cc1cc(C)nc(N2CC3CN(C(=O)c4nc(C)ccc4-c4ncc(C)o4)CC3C2)n1 (stereo not shown) [Example 422, 2-(4,6-Dimethylpyrimidin-2-yl)-5-{[6-methyl-3-(5-methyl-1,3-oxazol-2-yl)pyridin-2-yl]carbonyl}octahydropyrrolo[3,4-c]pyrrole]",1050 nM,
"CCOc1ncccc1C(=O)N1CC2CN(c3cnc4cc(F)c(F)cc4n3)CC2C1 (stereo not shown) [Example 447, 2-{5-[(2-Ethoxypyridin-3 yl)carbonyl]hexahydropyrrolo[3,4-c]pyrrol-2(1H)-yl}-6,7-difluoroquinoxaline]",580 nM,
"Cc1cc(C)nc(N2CC3CN(C(=O)c4c(F)cccc4-c4ccc(Cl)cn4)CC3C2)n1 (stereo not shown) [Example 484, 2-{[2-(5-Chloropyridin-2-yl)-6-fluorophenyl]carbonyl}-5-(4,6-dimethylpyrimidin-2-yl)octahydropyrrolo[3,4-c]pyrrole]",230 nM,
"CCCOc1ccc(C)nc1C(=O)N1CC2CN(c3nc(C)cc(C)n3)CC2C1 (stereo not shown) [Example 419, 2-(4,6-Dimethylpyrimidin-2-yl)-5-[(6-methyl-3-propoxypyridin-2-yl)carbonyl]octahydropyrrolo[3,4-c]pyrrole]",1070 nM,
"Cc1cc(C)nc(N2CC3CN(C(=O)c4ccccc4-c4cn(Cc5ccccc5)nn4)CC3C2)n1 (stereo not shown) [Example 434, 2-{[2-(1-Benzyl-1H-1,2,3-triazol-4-yl)phenyl]carbonyl}-5-(4,6-dimethylpyrimidin-2-yl)octahydropyrrolo[3,4-c]pyrrole]",394 nM,
"Cc1nc(N(C)C)cc(N2CC3CN(C(=O)c4cccc(F)c4-n4nccn4)CC3C2)n1 (stereo not shown) [Example 416, 6-[5-{[3-Fluoro-2-(2H-1,2,3-triazol-2-yl)phenyl]carbonyl}hexahydropyrrolo[3,4-c]pyrrol-2(1H)-yl]-N,N,2-trimethylpyrimidin-4-amine]",164 nM,

# Compounds with a lower Ki (human orexin 2 receptor [1]), results first:
Ki (human orexin 2 receptor [1]),Kb (human orexin 2 receptor [2]),SMILES
30 nM,,"Cc1cc(C)nc(N2CC3CN(C(=O)c4c(F)cccc4-c4cn(C)cn4)CC3C2)n1 (stereo not shown) [Example 482, 2-(4,6-Dimethylpyrimidin-2-yl)-5-{[2-fluoro-6-(1-methyl-1H-imidazol-4-yl)phenyl]carbonyl}octahydropyrrolo[3,4-c]pyrrole]"
26 nM,,"O=C(c1cccc(F)c1-c1ccccn1)N1CC2CN(c3cnc4cc(F)c(F)cc4n3)CC2C1 (stereo not shown) [Example 452, 6,7-Difluoro-2-{5-[(3-fluoro-2-pyridin-2-ylphenyl)carbonyl]hexahydropyrrolo[3,4-c]pyrrol-2(1H)-yl}quinoxaline]"
36 nM,,"O=C(c1cccc(F)c1-c1ncccc1F)N1CC2CN(c3cnc4cc(F)c(F)cc4n3)CC2C1 (stereo not shown) [Example 450, 6,7-Difluoro-2-[5-{[3-fluoro-2-(3-fluoropyridin-2-yl)phenyl]carbonyl}hexahydropyrrolo[3,4-c]pyrrol-2(1H)-yl]quinoxaline]"
27 nM,,"Cc1ccc(-c2ncccn2)c(C(=O)N2CC3CN(c4nc(C)c(C)c(C)n4)CC3C2)n1 (stereo not shown) [Example 445, 2-[(6-Methyl-3-pyrimidin-2-ylpyridin-2-yl)carbonyl]-5-(4,5,6-trimethylpyrimidin-2-yl)octahydropyrrolo[3,4-c]pyrrole]"
45 nM,,"Cc1ccnc(-c2cccc(F)c2C(=O)N2CC3CN(c4nc(C)cc(C)n4)CC3C2)c1 (stereo not shown) [Example 489, 2-(4,6-Dimethylpyrimidin-2-yl)-5-{[2-fluoro-6-(4-methylpyridin-2-yl)phenyl]carbonyl}octahydropyrrolo[3,4-c]pyrrole]"
29 nM,,"O=C(c1cccc(F)c1-c1ncco1)N1CC2CN(c3cnc4cc(F)c(F)cc4n3)CC2C1 (stereo not shown) [Example 451, 6,7-Difluoro-2-[5-{[3-fluoro-2-(1,3-oxazol-2-yl)phenyl]carbonyl}hexahydropyrrolo[3,4-c]pyrrol-2(1H)-yl]quinoxaline]"
33 nM,,"COc1cccc(-n2nccn2)c1C(=O)N1CC2CN(c3nc(C)cc(C)n3)CC2C1 (stereo not shown) [Example 465, 2-(4,6-Dimethylpyrimidin-2-yl)-5-{[2-methoxy-6-(2H-1,2,3-triazol-2-yl)phenyl]carbonyl}octahydropyrrolo[3,4-c]pyrrole]"
